Source: patent US7053116B2, “Methods for protecting cells from amyloid toxicity and for inhibiting amyloid protein production” (The Salk Institute for Biological Studies, priority 2000, dated 2006)
Read-outs that look alike come from different tables or passages of the source. No end group written: not given here.

Legend:
[1] = system: B12 cells; details: cited from earlier work; for enhancement of MTT formazan exocytosis: B12 cells, Liu and Schubert 1997; for induction of MTT formazan exocytosis by protein fibrils: fibrils formed under denaturing conditions, Liu and Schubert 1998
[2] = system: B12 cells; details: for ability to induce MTT formazan exocytosis (in words): peptide preparations
Procedure: MTT reduction and MTT formazan exocytosis MTT reduction by cultured cells was performed in 96-well microtiter plates containing 100 μl of medium per well. Cells (about 10^4 cells per well) were plated in Dulbecco's modified Eagles's medium (DMEM) supplemented with 5% dialyzed fetal calf serum and incubated overnight before drug treatment. MTT reduction was started by adding 10 μl per well of a 2.5 mg/ml MTT stock in phosphate-buffered saline (PBS) and terminated by adding 100 μl of a solubilization solution containing 50% N,N′-dimethylformamide and 20% sodium dodecyl sulfate (SDS; pH 4.8). […] MTT reduction is determined the next day by determining absorbance at 570 nm with an automatic microtiter plate reader, using 630 nm as the reference wavelength.
MTT reduction by living cells is initially observed as intracellular formazan granules, and needle-like formazan crystals begin to appear on the cell surface after about 30 min of MTT reduction.
Amyloid peptide-induced MTT formazan exocytosis was determined with B12 cells, as described herein. B12 cells on 35 mm dishes were treated with 10 μM for 16 hr at 37° C., followed by 30 min MTT reduction. The percentage of cells exocytosing MTT formazan with morphology similar to that induced by Aβ was then determined.

[3] = system: astrocytes; experiment: Astrocyte activation indicated by morphological changes; format: cell-based, rat; details: peptide preparations
Procedure: The dissected cortices were dissociated enzymatically with trypsin and mechanically by passing through a fine pipette. The cells were cultured in α-MEM (Life Technologies, MD) containing 10% fetal bovine serum and antibiotics. After 11 days in culture, the primary cells were replated at a density of 10,000 cells/cm^2 and grown until confluent. At least 24 hr before treatment, the cells were washed twice with PBS and then incubated with serum-free α-MEM containing N2 supplements (Life Technologies, MD).

[4] = system: Primary astrocytes; experiment: Astrocyte culture, quantitation of secreted cytokines (ELISA); format: cell-based, rat; details: astrocyte conditioned media; 10 μM peptide for 12 hr; mean ±S.E.M.
Procedure: Astrocyte culture and quantitation of secreted cytokines Primary astrocytes were prepared from the cortices of 2-day-old Sprague-Dawley rat pups according the method of Levison and McCarthy (Culturing Nerve Cells in: G. Banker, and K. Goslin (eds.), MIT Press, Cambridge, Mass. 1991, pp. 309–336). The dissected cortices were dissociated enzymatically with trypsin and mechanically by passing through a fine pipette. The cells were cultured in α-MEM (Life Technologies, MD) containing 10% fetal bovine serum and antibiotics. After 11 days in culture, the primary cells were replated at a density of 10,000 cells/cm^2 and grown until confluent. At least 24 hr before treatment, the cells were washed twice with PBS and then incubated with serum-free α-MEM containing N2 supplements (Life Technologies, MD).
Cytokine Measurements For IL-1β and TNF-α measurements, 7.5×10^4 cells/well were plated in a 48-well tissue culture plate. After 48 hr of incubation in serum-free α-MEM containing N2 supplements, the cells were treated with 10 μM of various amyloid or non-amyloidogenic peptides for 12 hr. Conditioned media from duplicate wells for each sample were collected and stored at −80° C. until use. Cytokine levels in the conditioned media were determined by ELISA kits from R&D systems and performed according to the manufacturer's protocols.

[5] = system: Hippocampal neurons
Procedure: (§1) The cells were suspended in a serum-free medium and plated on polylysine-coated 24-well tissue culture plates (1×10^6 cells/ml). The serum-free medium used is a modified minimal essential medium containing 30 mM glucose, 2 mM glutamine, 1 mM pyruvate, penicillin (100 U/ml), streptomycin (100 μg/ml), and N1supplements (Sigma). After 3 days in culture, the neurons acquire long and extensively branched neurites. Half of the medium in each dish was then replaced with fresh medium, and test reagents (20 μM peptide solutions) were added. Neuron survival was assessed 48 hours after treatment. Neurons were judged to be viable by the intactness of their neurites and soma (absence of vacuoles and the ability to exclude trypan blue). Five fields (˜80 neurons/field) were scored in each culture. The number of viable neurons in untreated cultures was designated as 100% survival.

[6] = system: Aβ-induced MTT formazan exocytosis; experiment: Blocking of Aβ-induced MTT formazan exocytosis by amyloid-binding agents; format: cell-based
Procedure: MTT formazan exocytosis is assessed by microscopic observation. The needle-like crystals on the surface of the cells incubated with MTT, which are easily visible under a light microscope, represent exocytosed MTT formazan (Liu et al. (1997) J. Neurochem. 69:581–593). The percentages of cells exocytosing MTT formazan were determined by counting 300 cells in multiple fields using the presence of needle-like formazan crystals on cell surface as an indicator of MTT formazan exocytosis. A cell is counted as exocytosing MTT formazan when several needle-like formazan crystals are clearly visible.
The involvement of β-sheeted amyloid fibrils in generating this phenomenon is supported by the observation that amyloid-binding agents such as Congo red block 90% of the Aβ-induced MTT formazan exocytosis. Under denaturing conditions, non-amyloidogenic proteins such as insulin and glucagon also form protein fibrils with the same cross β structure as that in amyloid fibrils (Glenner et al., J. Histochem. Cytochem. 22:1141–1158 (1974) and Burke et al. Biochem. 11:2435–2439 (1972)). […] Therefore, the ability to enhance cellular MTT formazan exocytosis is a common property of protein fibrils having a cross β-pleated sheet structure. […]

[7] = system: Hippocampal neurons; experiment: Hippocampal neuronal cultures, assessment of neuronal viability
Procedure: as §1

## Aβ1-28: nonfibrillogenic peptide
[1]
  enhancement of MTT formazan exocytosis: do not enhance

## Aβ17-40: nonfibrillogenic peptide (LVFFAEDVGSNKGAIIGLMVGGVV; Amyloid-beta protein 40; UniProt P05067 688-711, looked up, fragment)
[1]
  enhancement of MTT formazan exocytosis: do not enhance

## Aβ1-40: amyloid beta 1-40, 40 amino acid form of amyloid beta peptide; lot not specified
[1]
  enhancement of MTT formazan exocytosis: dramatically enhance
[2]
  ability to induce MTT formazan exocytosis (in words): variable among different manufacturer's lots

## CC(C)C[C@H](NC(=O)[C@H](CC(N)=O)NC(=O)[C@H](CC(N)=O)NC(=O)[C@H](CO)NC(=O)[C@H](CO)NC(=O)[C@H](CCCNC(=N)N)NC(=O)[C@@H](NC(=O)[C@H](CC(C)C)NC(=O)[C@H](Cc1ccccc1)NC(=O)[C@H](CC(N)=O)NC(=O)[C@H](C)NC(=O)[C@H](CC(C)C)NC(=O)[C@H](CCCNC(=N)N)NC(=O)[C@H](CCC(N)=O)NC(=O)[C@@H](NC(=O)[C@H](C)NC(=O)[C@@H]1CSSC[C@H](NC(=O)[C@@H](N)CCCCN)C(=O)N[C@@H](CC(N)=O)C(=O)N[C@@H]([C@@H](C)O)C(=O)N[C@@H](C)C(=O)N[C@@H]([C@@H](C)O)C(=O)N1)[C@@H](C)O)C(C)C)C(=O)NCC(=O)N1CCC[C@H]1C(=O)N[C@H](C(=O)N[C@@H](CC(C)C)C(=O)N1CCC[C@H]1C(=O)N1CCC[C@H]1C(=O)N[C@H](C(=O)N[C@@H](CC(N)=O)C(=O)N[C@H](C(=O)NCC(=O)N[C@@H](CO)C(=O)N[C@@H](CC(N)=O)C(=O)N[C@H](C(=O)N[C@@H](Cc1ccc(O)cc1)C(N)=O)[C@@H](C)O)C(C)C)[C@@H](C)O)C(C)C [Rat amylin]
[3]
  astrocyte activation as indicated by the morphological changes of the astrocytes (in words): not active
[1]
  enhancement of MTT formazan exocytosis: do not enhance
[2]
  ability to induce MTT formazan exocytosis (in words): not active
[4]
  IL-1β: 46 ± 7 pg/mL
  TNF-α: 48 ± 8 pg/mL
[5]
  neurotoxicity to rat hippocampal neurons (in words): not active

## GSNKGAIIGLM [Aβ25–35]
[1]
  enhancement of MTT formazan exocytosis: dramatically enhance
[2]
  ability to induce MTT formazan exocytosis (in words): always active
[4]
  IL-1β: 754 ± 78 pg/mL
  TNF-α: 350 ± 46 pg/mL

## Nc1c(/N=N/c2ccc(-c3ccc(/N=N/c4cc(S(=O)(=O)O)c5ccccc5c4N)cc3)cc2)cc(S(=O)(=O)O)c2ccccc12 [Congo red]
[6]
  block of the Aβ-induced MTT formazan exocytosis: 90%

## CC[C@H](C)[C@H](NC(=O)[C@H](C)NC(=O)CNC(=O)[C@H](Cc1ccccc1)NC(=O)[C@H](CC(N)=O)NC(=O)[C@H](CC(N)=O)NC(=O)[C@H](CO)NC(=O)[C@H](CO)NC(=O)[C@H](Cc1c[nH]cn1)NC(=O)[C@@H](NC(=O)[C@H](CC(C)C)NC(=O)[C@H](Cc1ccccc1)NC(=O)[C@H](CC(N)=O)NC(=O)[C@H](C)NC(=O)[C@H](CC(C)C)NC(=O)[C@H](CCCNC(=N)N)NC(=O)[C@H](CCC(N)=O)NC(=O)[C@@H](NC(=O)[C@H](C)NC(=O)[C@@H]1CSSC[C@H](NC(=O)[C@@H](N)CCCCN)C(=O)N[C@@H](CC(N)=O)C(=O)N[C@@H]([C@@H](C)O)C(=O)N[C@@H](C)C(=O)N[C@@H]([C@@H](C)O)C(=O)N1)[C@@H](C)O)C(C)C)C(=O)N[C@@H](CC(C)C)C(=O)N[C@@H](CO)C(=O)N[C@@H](CO)C(=O)N[C@H](C(=O)N[C@@H](CC(N)=O)C(=O)N[C@H](C(=O)NCC(=O)N[C@@H](CO)C(=O)N[C@@H](CC(N)=O)C(=O)N[C@H](C(=O)N[C@@H](Cc1ccc(O)cc1)C(N)=O)[C@@H](C)O)C(C)C)[C@@H](C)O [Human amylin]
[7]; peptide preparations
  neurotoxicity to rat hippocampal neurons (in words): kill rat hippocampal neurons
[7]; rat hippocampal neurons, 20 μM peptide solutions, 48 hours after treatment, mean ±S.E.M.
  Viable Neurons (% of control): 32 ± 7 % of control
[2]; percentage of B12 cells exocytosing MTT formazan, 10 μM for 16 hr at 37° C., followed by 30 min MTT reduction, mean ±S.E.M.
  MTT (%): 97 ± 1 %

## insulin: non-amyloidogenic protein forming fibrils with cross β structure under denaturing conditions
[1]
  induction of MTT formazan exocytosis by protein fibrils: induce MTT formazan exocytosis

## glucagon: non-amyloidogenic protein forming fibrils with cross β structure under denaturing conditions
[1]
  induction of MTT formazan exocytosis by protein fibrils: induce MTT formazan exocytosis
